Assay results reported in publication PMC5862990, “Dynamical origins of heat capacity changes in enzyme-catalysed reactions” (Nature Communications, 2018).

Target: T1, MalL (Bacillus subtilis, UniProt O06994)
T1 construct: wild-type, recombinant, monomeric
Assay: X-ray co-crystal structure
Format: binding
Details: co-crystallised with 0.5 mM ligand, 18 °C; active site; transition-state analogue

T1 sequence (O06994 whole entry): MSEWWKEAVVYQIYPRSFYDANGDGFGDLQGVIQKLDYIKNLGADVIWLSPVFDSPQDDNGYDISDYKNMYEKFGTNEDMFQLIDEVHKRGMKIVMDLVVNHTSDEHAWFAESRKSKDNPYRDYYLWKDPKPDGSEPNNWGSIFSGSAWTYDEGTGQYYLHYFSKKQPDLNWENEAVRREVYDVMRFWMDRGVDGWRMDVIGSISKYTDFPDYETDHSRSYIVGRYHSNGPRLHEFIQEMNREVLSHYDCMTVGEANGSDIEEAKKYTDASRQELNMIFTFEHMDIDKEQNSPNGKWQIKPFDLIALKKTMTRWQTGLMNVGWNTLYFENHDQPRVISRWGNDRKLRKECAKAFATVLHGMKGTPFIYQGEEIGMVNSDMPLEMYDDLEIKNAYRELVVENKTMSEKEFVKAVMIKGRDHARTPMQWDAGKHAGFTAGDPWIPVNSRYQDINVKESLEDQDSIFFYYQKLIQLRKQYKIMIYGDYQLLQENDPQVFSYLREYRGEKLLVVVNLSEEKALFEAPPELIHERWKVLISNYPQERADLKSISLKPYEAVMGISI

OC[C@H]1NC[C@H](O)[C@@H](O)[C@@H]1O [1-deoxynojirimycin]
X-ray co-crystal structure: Coordinates and structure factors for MalL co-crystallised with 1-deoxynojirimycin are deposited in the PDB
